Measurements as given in US11427606B2, “Azithromycin derivatives containing a phosphonium ion as anticancer agents” (Rising Tide Foundation, priority 2017, dated 2022).

test system: MDA-231 cancer cells; experiment: Inhibition of proliferation assay: cell confluence (IncuCyte imaging); format: cell-based; settings: compound at 10 uM; MDA-231 cells; IncuCyte images every 3 h over 4-5 d; relative confluence normalised to time zero
Description: Inhibition of Proliferation Assay
The confluence value is a surrogate for cell proliferation and growth. The value is expressed as a percent confluence, which represents the fraction of culture dish-surface that is occupied by cells. As the number of cells in the dish increases over time due to proliferation, so will their coverage of that surface increase. Expansion of the cell population on the cell culture-dish surface and confluence have mostly a linear relationship until the cells on the plate surface begin to reach saturation or maximum density.
Confluence is determined based on image analysis. Image based software can identify objects in the image field base on changes to pixel density in a grey scale image. The software can then assign a mask to those pixels within the object. Objects can be ‘gated’ out based on size and shape. To determine cell confluence, images of cells are first masked as objects. The surface area of the image that is masked is measured and compared to the total surface area of the culture dish surface to obtain a percent confluence.
MDA-231 cancer cells were obtained from ATCC. Cells were cultured in Dulbecco's Modified Eagle Medium (DMEM) supplemented with 10% Fetal Bovine Serum (FBS), 2 mM Glutamax, 1 mM Non Essential Amino Acid (NEAA) solution and 1 mM sodium pyruvate. […] Final DMSO concentrations were […]. Images were acquired with an IncuCyte Live Cell Imaging microscopy (Essen Bioscience) at every 3 h under cell culture conditions with 10× objective over 4-5 d. Cell confluence was calculated from one field of view per well using the IncuCyte in-built algorithm. Relative confluence values were obtained by normalising each value to the time zero value in each sample.

Row | Compound | % Confluence
1 | CC[C@H]1OC(=O)[C@H](C)[C@@H](O[C@H]2C[C@@](C)(OC)[C@@H](O)[C@H](C)O2)[C@H](C)[C@@H](O[C@@H]2O[C@H](C)C[C@H](N(C)C)[C@H]2O)[C@](C)(O)C[C@@H](C)CN(C(=O)CCCCCCC[P+](c2ccc(OC)cc2)(c2ccc(OC)cc2)c2ccc(OC)cc2)[C@H](C)[C@@H](O)[C@]1(C)O.F[P-](F)(F)(F)(F)F [Example 5, {8-[(2R,3S,4R,5R,8R,10R,11R,12S,13S,14R)-11-{[(2S,3R,4S,6R)-4-(dimethylamino)-3-hydroxy-6-methyloxan-2-yl]oxy}-2-ethyl-3,4,10-trihydroxy-13-{[(2R,4R,5S,6S)-5-hydroxy-4-methoxy-4,6-dimethyloxan-2-yl]oxy}-3,5,8,10,12,14-hexamethyl-15-oxo-1-oxa-6-azacyclopentadecan-6-yl]-8-oxooctyl}tris(4-methoxyphenyl)phosphoniumhexafluorophosphate(V)] | 7.8%
2 | CC[C@H]1OC(=O)[C@H](C)[C@@H](O[C@H]2C[C@@](C)(OC)[C@@H](O)[C@H](C)O2)[C@H](C)[C@@H](O[C@@H]2O[C@H](C)C[C@H](N(C)C)[C@H]2O)[C@](C)(O)C[C@@H](C)CN(C(=O)CCCCCCC[P+](c2ccccc2)(c2ccccc2)c2ccccc2-c2ccccc2)[C@H](C)[C@@H](O)[C@]1(C)O [Example 18, {[1,1′-biphenyl]-2-yl}({8-[(2R,3S,4R,5R,8R,10R,11R,12S,13S,14R)-11-{[(2S,3R,4S,6R)-4-(dimethylamino)-3-hydroxy-6-methyloxan-2-yl]oxy}-2-ethyl-3,4,10-trihydroxy-13-{[(2R,4R,5S,6S)-5-hydroxy-4-methoxy-4,6-dimethyloxan-2-yl]oxy}-3,5,8,10,12,14-hexamethyl-15-oxo-1-oxa-6-azacyclopentadecan-6-yl]-8-oxooctyl})diphenylphosphonium hexafluorophosphate(V)] | 7.7%
3 | CC[C@H]1OC(=O)[C@H](C)[C@@H](O[C@H]2C[C@@](C)(OC)[C@@H](O)[C@H](C)O2)[C@H](C)[C@@H](O[C@@H]2O[C@H](C)C[C@H](N(C)C)[C@H]2O)[C@](C)(O)C[C@@H](C)CN(C(=O)CCCCC[P+](c2cc(C)cc(C)c2)(c2cc(C)cc(C)c2)c2cc(C)cc(C)c2)[C@H](C)[C@@H](O)[C@]1(C)O [Example 1, {6-[(2R,3S,4R,5R,8R,10R,11R,12S,13S,14R)-11-{[(2S,3R,4S,6R)-4-(dimethylamino)-3-hydroxy-6-methyloxan-2-yl]oxy}-2-ethyl-3,4,10-trihydroxy-13-{[(2R,4R,5S,6S)-5-hydroxy-4-methoxy-4,6-dimethyloxan-2-yl]oxy}-3,5,8,10,12,14-hexamethyl-15-oxo-1-oxa-6-azacyclopentadecan-6-yl]-6-oxohexyl}tris(3,5-dimethylphenyl)phosphoniumhexafluorophosphate(V)] | 4.8%
4 | CC[C@H]1OC(=O)[C@H](C)[C@@H](O[C@H]2C[C@@](C)(OC)[C@@H](O)[C@H](C)O2)[C@H](C)[C@@H](O[C@@H]2O[C@H](C)C[C@H](N(C)C)[C@H]2O)[C@](C)(O)C[C@@H](C)CN(C(=O)CCCCC[P+](c2ccccc2)(c2ccccc2)c2cccc(S(=O)(=O)O)c2)[C@H](C)[C@@H](O)[C@]1(C)O.F[P-](F)(F)(F)(F)F [Example 2, {6-[(2R,3S,4R,5R,8R,10R,11R,12S,13S,14R)-11-{[(2S,3R,4S,6R)-4-(dimethylamino)-3-hydroxy-6-methyloxan-2-yl]oxy}-2-ethyl-3,4,10-trihydroxy-13-{[(2R,4R,5S,6S)-5-hydroxy-4-methoxy-4,6-dimethyloxan-2-yl]oxy}-3,5,8,10,12,14-hexamethyl-15-oxo-1-oxa-6-azacyclopentadecan-6-yl]-6-oxohexyl}diphenyl(3-sulfophenyl)phosphoniumhexafluorophosphate(V)] | 131.8%
5 | CC[C@H]1OC(=O)[C@H](C)[C@@H](O[C@H]2C[C@@](C)(OC)[C@@H](O)[C@H](C)O2)[C@H](C)[C@@H](O[C@@H]2O[C@H](C)C[C@H](N(C)C)[C@H]2O)[C@](C)(O)C[C@@H](C)CN(C)[C@H](C)[C@@H](O)[C@]1(C)O [Azithromycin] | 99.1%
6 | CC[C@H]1OC(=O)[C@H](C)[C@@H](O[C@H]2C[C@@](C)(OC)[C@@H](O)[C@H](C)O2)[C@H](C)[C@@H](O[C@@H]2O[C@H](C)C[C@H](N(C)C)[C@H]2O)[C@](C)(O)C[C@@H](C)CN(C(=O)CCCCCCC[P+](c2ccccc2-c2c(OC(C)C)cccc2OC(C)C)(C2CCCCC2)C2CCCCC2)[C@H](C)[C@@H](O)[C@]1(C)O [Example 6, [2′,6′-bis(propan-2-yloxy)-[1,1′-biphenyl]-2-yl]dicyclohexyl{8-[(2R,3S,4R,5R,8R,10R,11R,12S,13S,14R)-11-{[(2S,3R,4S,6R)-4-(dimethylamino)-3-hydroxy-6-methyloxan-2-yl]oxy}-2-ethyl-3,4,10-trihydroxy-13-{[(2R,4R,5S,6S)-5-hydroxy-4-methoxy-4,6-dimethyloxan-2-yl]oxy}-3,5,8,10,12,14-hexamethyl-15-oxo-1-oxa-6-azacyclopentadecan-6-yl]-8-oxooctyl}phosphonium hexafluorophosphate(V)] | 4%
7 | CC[C@H]1OC(=O)[C@H](C)[C@@H](O[C@H]2C[C@@](C)(OC)[C@@H](O)[C@H](C)O2)[C@H](C)[C@@H](O[C@@H]2O[C@H](C)C[C@H](N(C)C)[C@H]2O)[C@](C)(O)C[C@@H](C)CN(C(=O)CCCCCCCCCCC[P+](c2ccccc2)(c2ccccc2)c2cnn(C)c2)[C@H](C)[C@@H](O)[C@]1(C)O.[Cl-] [Example 28, {12-[(2R,3S,4R,5R,8R,10R,11R,12S,13S,14R)-11-{[(2S,3R,4S,6R)-4-(dimethylamino)-3-hydroxy-6-methyloxan-2-yl]oxy}-2-ethyl-3,4,10-trihydroxy-13-{[(2R,4R,5S,6S)-5-hydroxy-4-methoxy-4,6-dimethyloxan-2-yl]oxy}-3,5,8,10,12,14-hexamethyl-15-oxo-1-oxa-6-azacyclopentadecan-6-yl]-12-oxododecyl}(1-methyl-1H-pyrazol-4-yl)diphenylphosphonium chloride] | 16%
8 | CC[C@H]1OC(=O)[C@H](C)[C@@H](O)[C@H](C)[C@@H](O[C@@H]2O[C@H](C)C[C@H](N(C)C)[C@H]2O)[C@](C)(O)C[C@@H](C)CN(CCCCCCCC[P+](c2ccc(OC)cc2)(c2ccc(OC)cc2)c2ccc(OC)cc2)[C@H](C)[C@@H](O)[C@]1(C)O [Example 20] | 14.8%
9 | CC[C@H]1OC(=O)[C@H](C)[C@@H](O[C@H]2C[C@@](C)(OC)[C@@H](O)[C@H](C)O2)[C@H](C)[C@@H](O[C@@H]2O[C@H](C)C[C@H](N(C)C)[C@H]2O)[C@](C)(O)C[C@@H](C)CN(C(=O)CCCCCCC[P+](c2ccc(F)cc2)(c2ccc(F)cc2)c2ccc(F)cc2)[C@H](C)[C@@H](O)[C@]1(C)O [Example 3, {8-[(2R,3S,4R,5R,8R,10R,11R,12S,13S,14R)-11-{[(2S,3R,4S,6R)-4-(dimethylamino)-3-hydroxy-6-methyloxan-2-yl]oxy}-2-ethyl-3,4,10-trihydroxy-13-{[(2R,4R,5S,6S)-5-hydroxy-4-methoxy-4,6-dimethyloxan-2-yl]oxy}-3,5,8,10,12,14-hexamethyl-15-oxo-1-oxa-6-azacyclopentadecan-6-yl]-8-oxooctyl}tris(4-fluorophenyl)phosphonium hexafluorophosphate(V)] | 97.7%

same assay, conditions: compound at 100 uM; MDA-231 cells; IncuCyte images every 3 h over 4-5 d; relative confluence normalised to time zero

Row | Compound | % Confluence
10 | CC[C@H]1OC(=O)[C@H](C)[C@@H](O[C@H]2C[C@@](C)(OC)[C@@H](O)[C@H](C)O2)[C@H](C)[C@@H](O[C@@H]2O[C@H](C)C[C@H](N(C)C)[C@H]2O)[C@](C)(O)C[C@@H](C)CN(C)[C@H](C)[C@@H](O)[C@]1(C)O [Azithromycin] | 17%
